Values after ≈ are worked out from the molar mass of the structure shown. Read-outs that look alike come from different tables or passages of the source.

Data set [1] has as its system Carbapenam-resistant Enterobacter strains (CRE). Put plainly: microbe, parasite or virus in culture. The settings on record: CRE (n = 19 strains), Table 5. The protocol: (§1) MIC of cationic polymers and polypeptide were tested in accordance with the Clinical and Laboratory Standards Institute (CLSI) guidelines against a panel of antibiotic-susceptible/-resistant bacteria, yeasts and fungal strains. Bacterial and yeast strains were cultured on tryptic soy agar (TSA) and Sabaroud dextrose agar (SDA) plates (Neogen Corporation, MI, USA) overnight respectively. Inocula in Mueller-Hinton broth (MHB) for bacteria and SD broth for C. albicans (Beckton Dickinson, MD, USA) were prepared at 0.5 McFarland. The suspensions were then diluted to a final concentration of 10^5 CFU/ml in a 96-well microtitre plate (SPL Life Sciences Co., Ltd, Korea). […] The antimicrobial activities were compared with topical antiseptic agents, BAK and CHX. A similar protocol was used to determine the MIC of εPL against antibiotic-resistant pathogens. MIC of the polymers and polypeptides against Fusarium strains was determined in full strength RPMI-1640 buffer. Fungal spores were recovered from a 5-day old culture on a potato dextrose agar and diluted to a concentration of 10^5 spores/ml in 0.9% saline solution. A further 50-fold dilution was done in RPMI-1640 buffer and 100 μl of the inoculum was added to 96 well plates containing an equal volume of test peptides at 2-fold serial dilutions. 200 μl of inoculum without any additives and buffer alone served as positive and negative controls, respectively. The plate was then incubated at 30° C. for 48 h. The absorbance value was measured at 600 nm as before and the lowest concentration of the peptide which inhibited 90% growth was reported. All MIC determinations were performed in duplicates.
(§2) MICs of polymers/antibiotics were determined using the microdilution method in 96 well microtitre plates (SPL Life Sciences Co., Ltd, Korea), following the guidelines of Clinical and Laboratory Standards Institute (CLSI) document M100-S18. Briefly, polymers (1-512 μg/ml) or antibiotics were dissolved in appropriate media (Mueller Hinton broth, MHB for bacteria; Sabaroud's Dextrose (SD) broth for yeasts and RPMI buffer for Fusarium strains) and 100 μl of this was then mixed with an equal volume of microbial inoculum (OD600=˜0.08) in the same media and shaken in a closed incubator.

The next data set concerns A. baumannii. Description: microbe, parasite or virus in culture. The settings on record: A. baumannii (n = 10), Table 5. The protocol: as §1, §2
A further data set concerns E. cloacae complex. Description: microbe, parasite or virus in culture. The protocol: as §1, §2
For data set [2], the system named is a number of micro-organisms. The settings on record: cited from earlier work.
A further data set concerns VRE 1002. Description: SYTOX green (SG) uptake assay and bacterial viability. The format is cell-based, Enterococcus. The protocol:
To discern the pore-forming ability of modified peptide in comparison with melittin, the SYTOX green (SG) uptake assay was performed upon exposure of the peptides and their bactericidal properties were determined. […] Therefore the fluorescence intensity is taken to be proportional to the degree of cell membrane disruption caused by test peptides.

The test system of a further data set is red blood cells. The settings on record: cited from earlier work.
Another data set relates to S. aureus or MRSA. Type of data set: cell-based, Staphylococcus aureus. The settings on record: Table 4, range over 5 strains. The protocol:
as §1, with “Korea). Polymers and polypeptides were added to the inoculum in 2-fold serial dilutions to give a range of concentrations from 2-1024 μg/ml.” for “Korea).”
as §2

Data set [3] can be described thus: Calcein dye leakage from mammalian model LUVs. The settings on record: peptide:lipid ratio 0.0625. How it is done:
To obtain an insight into the mechanism of membrane discrimination, large unilamellar vesicles (LUVs) which mimic the cytoplasmic membrane of mammalian (PC/Cholesterol) and microbial (PE:PG) cells were used. […] More dramatic results were observed when the experiments were carried out on PC/Cholesterol LUVs.

Take `CC[C@H](C)[C@H](NC(=O)CN)C(=O)NCC(=O)N[C@@H](C)C(=O)N[C@H](C(=O)N[C@@H](CC(C)C)C(=O)N[C@@H](CCCCN)C(=O)N[C@H](C(=O)N[C@@H](CC(C)C)C(=O)N[C@H](C(=O)N[C@H](C(=O)NCC(=O)N[C@@H](CC(C)C)C(=O)N1CCC[C@H]1C(=O)N[C@@H](C)C(=O)N[C@@H](CC(C)C)C(=O)N[C@H](C(=O)N[C@@H](CO)C(=O)N[C@@H](Cc1c[nH]c2ccccc12)C(=O)N[C@H](C(=O)N[C@@H](CCCCN)C(=O)N[C@@H](CCCNC(=N)N)C(=O)N[C@@H](CCCCN)C(=O)N[C@@H](CCCNC(=N)N)C(=O)N[C@@H](CCC(N)=O)C(=O)N[C@@H](CCC(N)=O)C(N)=O)[C@@H](C)CC)[C@@H](C)CC)[C@@H](C)O)[C@@H](C)O)C(C)C)C(C)C` [Melittin]: the MIC50 result in data set [1] (50% of strains susceptible) is listed as “(MIC50 = 8)^2 μg/ml”. Further, the MIC is 8 to 32 µg/mL in data set [1] (range); 2 to 4 µg/mL against A. baumannii (range); 8 µg/mL (≈ 2.81 µM) in the data set on E. cloacae complex (E. cloacae complex 6780, Table 5); 8 µg/mL (≈ 2.81 µM) against E. cloacae complex (E. cloacae complex 44095, Table 5). For the same compound, in the data set on A. baumannii (90% of strains susceptible), the MIC90 result was “(MIC90 = 4)^2 μg/ml”. Further, the “MIC (range against a number of micro-organisms)” value in data set [2] (at 1 - 4 × 10^5 CFU/mL, reference 4) was 0.2 - 3 μM at 1 -; in data set [2] (at 1 × 10^6 CFU/mL, reference 6), 0.5 - 8 μM at; in data set [2] (at 7.5 × 10^5 CFU/mL, reference 8) it was 3.9 - 31.3 μM at. Also, the SG uptake with VRE 1002 (VRE 1002, at 1×MIC) was 79.2%; in the data set with VRE 1002 (VRE 1002, at 2×MIC) it was 89.7%. The Haemolytic activity in the data set with red blood cells (at 4 μM, reference 4) is given as 100% at 4 μM; with red blood cells (at 5 μM, reference 8), 50% at 5 μM; with red blood cells (at 10 μM, reference 6), more than 80% at 10 μM. Further, the “MIC against S. aureus or MRSA (n = 5)” value with S. aureus or MRSA lay in the range of 4 to 8 µg/mL. Also, in data set [3], the “dye leakage from PC/Cholesterol LUVs” value is approximately 70%.

The values above are taken from patent US11396531B2, “Antimicrobial peptides comprising epsilon lysine residues” (priority 2016, dated 2022).
